This note sets out measurements from patent publication EP1069130A1, “Moenomycin A Derivatives, their preparation, and use as antibacterial products” (HOECHST MARION ROUSSEL, priority 1999, dated 2001).

The experiment relates to S. pyogenes A561. As to the kind of experiment: Method of dilutions in liquid medium (minimum inhibiting concentration). The experiment is classed as cell-based. As to conditions: liquid nutritive medium, incubation twenty-four hours at 37° C, growth inhibition read by transillumination; for MIC: Streptococcus pyogenes, 24 h, read-out: minimum inhibiting concentrations (M.I.C.). The procedure: Method of dilutions in liquid medium.
A series of tubes were prepared in which the same amount of sterile nutritive medium was distributed and increasing amounts of the product to be studied was distributed in each tube. Then, each tube was seeded with a bacterial strain and after incubationg for twenty-four hours in an oven at 37° C, the inhibition of growth was determined by transillumination which allowed the minimum inhibiting concentrations (M.I.C.) to be evaluated.
Products were tested on many strains inclusing : • S. aureus SG511 • S. aureus SG511 (+10 % serum) • S. aureus Exp54146 • S. pyogenes A561 • E. faecium M78L

Some results are limits rather than exact numbers.

As for `C=CC(CCCCCCCCC)C(O)CO[C@H](COP(=O)(O)O[C@H]1O[C@H](C(N)=O)[C@@](C)(O)[C@H](OC(N)=O)[C@H]1O[C@@H]1O[C@H](CO[C@@H]2O[C@H](CO)[C@@H](O)[C@H](O)[C@H]2O)[C@@H](O[C@@H]2O[C@H](C)[C@@H](O[C@@H]3O[C@H](C(N)=O)[C@H](O)[C@H](O)[C@H]3O)[C@H](O)[C@H]2NC(C)=O)[C@H](O)[C@H]1NC(C)=O)C(=O)O` (stereo partly drawn) [Example 6], the MIC is ≤ 1.2 µg/mL.

As for `CCCCCCCCCCCCc1ccc(NCCO[C@H](COP(=O)(O)O[C@H]2O[C@H](C(N)=O)[C@@](C)(O)[C@H](OC(N)=O)[C@H]2O[C@@H]2O[C@H](CO[C@@H]3O[C@H](CO)[C@@H](O)[C@H](O)[C@H]3O)[C@@H](O[C@@H]3O[C@H](C)[C@@H](O[C@@H]4O[C@H](C(N)=O)[C@H](O)[C@H](O)[C@H]4O)[C@H](O)[C@H]3NC(C)=O)[C@H](O)[C@H]2NC(C)=O)C(=O)O)cc1` [Example 5, 3-carbamate 1-[(2R)-2-carboxy-2-[[(4-dodecylphenyl))amino]ethoxy]ethyl hydrogen phosphate] 0-β-D-glucopyranosyl-(1→6)-O-[O-(β-D-galactopyranuronamidosyi)-(1→4)-2-(acetylamino)-2,6-dideoxy-β-D-glucopyranosyl-(1→4]-O-2-(acetylamino)-2-deoxy-.beat.-D-glucopyranosyl-(1→2)-4-C-methyl-α-D-Glucopyranuronamide], the MIC is ≤ 1.2 µg/mL.

`CC(=O)NC1C(OC2C(COC3OC(CO)C(O)C(O)C3O)OC(OC3C(OP(=O)(O)OCC(OCCNCC=C(C)CCCC(C)CCCC(C)CCCC(C)C)C(=O)O)OC(C(N)=O)C(C)(O)C3OC(N)=O)C(NC(C)=O)C2O)OC(C)C(OC2OC(C(N)=O)C(O)C(O)C2O)C1O` [Example 4, 3-carbamate 1-[(2R)-2-carboxy-2-[[(3,7,11,15-tetramethyl-2-hexadecenyl)amino]ethoxy]ethyl hydrogen phosphate] 0-β-D-glucopyranosyl-(1→6)-O-[O-(β-D-galactopyranuronamidosyl)-(1→4)-2-(acetylamino)-2,6-dideoxy-β-D-glucopyranosyl-(1→4]-O-2-(acetylamino)-2-deoxy-.beat.-D-glucopyranosyl-(1→2)-4-C-methyl-α-D-Glucopyranuronamide]: the “minimum inhibiting concentrations (M.I.C.)” value is given as ≤ 1,2 microgramme/ml.
